From patent publication US12053527B2, “Compositions with permeation enhancers for drug delivery” (priority 2015, dated 2024)
Blank lines part the entries; values can stand above or below the molecule they belong to.

Key:
[1] = Linear oscillatory shear rheology (gelation temperature, storage and loss moduli); conditions: for effect on plateau values of G′ and G″ / mechanical properties and gelation temperature: CPE added separately to Cip-18% [P407-PBP]; for reduction of gelation temperature: CPE added separately to Cip-18% [P407-PBP] (1% SDS, 2% limonene or 0.5% bupivacaine)
[2] = Pharmacokinetics in the OM model: ciprofloxacin in middle ear fluid and plasma; type: in vivo, chinchilla; conditions: animals treated with the standard formulation
[3] = test system: non-typable H. influenzae (NTHi); conditions: cited from earlier work
S. pneumoniae = conditions: cited from earlier work
[4] = Ex vivo permeation of ciprofloxacin across the tympanic membrane
[5] = 2% limonene added to Cip-18% [P407-PBP]

effect on plateau values of G′ and G″ / mechanical properties and gelation temperature [1]: minimal effects
Compound: CCCCN1CCCCC1C(=O)Nc1c(C)cccc1C (centres unmarked) [Bupivacaine]

effect on plateau values of G′ and G″ / mechanical properties and gelation temperature [1]: did not affect
reduction of gelation temperature [1]: ~1.5 °C
Compound: CCCCCCCCCCCCOS(=O)(=O)[O-].[Na+] [SDS, Sodium dodecyl sulfate]

Compound: O=C(O)c1cn(C2CC2)c2cc(N3CCNCC3)c(F)cc2c1=O [ciprofloxacin]
ciprofloxacin in the blood [2]: undetectable
MIC for non-typable H. influenzae (NTHi) [3]: <0.1 to 0.5 mg/L
minimum inhibitory concentration (MIC) of NTHi [3]: 0.1 to 0.5 mg/L
minimum inhibitory concentration for H. influenza middle ear infections [3]: about 4 μg/mL
MIC for S. pneumoniae (S. pneumoniae): 0.5 to 4 mg/L
minimum inhibitory concentration for S. pneumoniae middle ear infections (S. pneumoniae): about 4 μg/mL

Compound: C=C(C)[C@H]1CC=C(C)CC1 [limonene]
concentration-dependent increase in ciprofloxacin transfer ([4]; 48 hours, limonene added): two-to-three-fold
time at which ciprofloxacin was detected in the receiving buffer ([4]; limonene added to ciprofloxacin): 1 to 2 h
decrease of G″ [1, 5]: 4.1 kPa
increase of G′ [1, 5]: 10.5 kPa
reduction of gelation temperature [1]: 14 °C
